From patent US8741836B2, “Polypeptides” (Novo Nordisk A/S, priority 2011, dated 2014)
Starred links: 1 amine or outer side, 2 acyl side, 3 side chain; linkers in the order of their positions; H or OH if unused. Positions of bridges follow the written chain, without caps; N, C: chain ends. Residues, ends and D or L forms follow the SMILES beside them. *: point of attachment. C20 diacid = O=C(O)CCCCCCCCCCCCCCCCCCC(=O)*; γGlu = O=C(O)[C@H](CCC(=O)[*:2])N[*:1]

Test system: ad libitum fed rat
Experiment: Assay (I) efficacy testing on appetite (food intake) using an ad libitum fed rat model
Format: in vivo, Sprague Dawley (SD) rats
Conditions: 3 nmol/kg
From the text: In the following examples reference is made to the following Assays: • Assay (I)—Experimental protocol for efficacy testing on appetite using an ad libitum fed rat model • ASSAY (II)a—Functional assay—Human calcitonin and amylin receptor assay • ASSAY (II)b—Functional assay—Rat calcitonin and rat amylin receptor assays • ASSAY (III)—ThT fibrillation assays for the assessment of physical stability of protein formulations • ASSAY (IV)—Determination of solubility • ASSAY (V)—Determination of binding to the human amylin receptor • ASSAY (VI)—Determination of the binding to the rat amylin receptor • ASSAY (VII)—Determination of binding to the human calcitonin receptor • ASSAY (VIII)—Determination of binding to the rat calcitonin receptor • ASSAY (IX)—pK—Determination of T½ in mini-pig • ASSAY (X)—pK—Determination of T½ in rat Assay (I)—Experimental protocol for Efficacy Testing on Appetite Using an Ad Libitum Fed Rat Model
Sprague Dawley (SD) rats from Taconic Europe, Denmark are used for the experiments. The rats have a body weight 200-250 g at the start of experiment. The rats arrive at least 10-14 days before start of experiment to allow acclimatization to experimental settings. During this period the animals are handled at least 2 times. After arrival rats are housed individually for one week in a reversed light/dark phase (meaning that lights are off during daytime and on during nighttime) […]. Since rats are normally active and eat their major part of their daily food intake during the dark period, rats are dosed in the morning right before lights are turned off. This set-up results in the lowest data variation and highest test sensitivity. The experiment is conducted in the rats' home cages and rats have free access to food and water throughout the acclimatization period and the experiment period. Each dose of derivative is tested in a group of 5-8 rats. A vehicle group of 6-8 rats is included in each set of testing. Rats are dosed once according to body weight with a 0.01-3 mg/kg solution administered intraperitoneally (ip), orally (po) or subcutaneously (sc). The time of dosing is recorded for each group. After dosing, the rats are returned to their home cages, where they then have access to food and water. The food consumption is recorded individually continuously by on-line registration or manually every hour for 7 hours, and then after 24 h and sometimes 48 h. At the end of the experimental session, the animals are euthanised.
The individual data are recorded in Microsoft excel sheets. Outliers are excluded after applying the Grubbs statistical evaluation test for outliers, and the result is presented graphically using the GraphPad Prism program.

SMILES | Food intake reduction 0-24 h 3 nmol/kg (%) | Food intake reduction 24-48 h 3 nmol/kg (%)
CC[C@H](C)[C@H](NC(=O)[C@@H]1CCCN1C(=O)CNC(=O)[C@H](Cc1ccccc1)NC(=O)[C@H](CC(N)=O)NC(=O)[C@H](CC(N)=O)NC(=O)[C@H](CO)NC(=O)[C@H](CO)NC(=O)[C@H](Cc1c[nH]cn1)NC(=O)[C@H](Cc1c[nH]cn1)NC(=O)[C@H](CC(C)C)NC(=O)[C@H](Cc1ccccc1)NC(=O)[C@H](CCC(=O)O)NC(=O)[C@H](C)NC(=O)[C@H](CC(C)C)NC(=O)[C@H](CCCNC(=N)N)NC(=O)[C@H](CCC(N)=O)NC(=O)[C@@H](NC(=O)[C@H](C)NC(=O)[C@@H]1CSSC[C@H](NC(=O)[C@H](Cc2c[nH]cn2)NC(=O)[C@H](Cc2c[nH]cn2)NC(=O)[C@H](Cc2c[nH]cn2)NC(=O)CC[C@H](NC(=O)CCCCCCCCCCCCCCCCCCC(=O)O)C(=O)O)C(=O)N[C@@H](CCCNC(=N)N)C(=O)N[C@@H]([C@@H](C)O)C(=O)N[C@@H](C)C(=O)N[C@@H]([C@@H](C)O)C(=O)N1)[C@@H](C)O)C(=O)N[C@@H](CC(C)C)C(=O)N1CCC[C@H]1C(=O)N1CCC[C@H]1C(=O)N[C@H](C(=O)N[C@@H](CC(N)=O)C(=O)N[C@H](C(=O)NCC(=O)N[C@@H](CO)C(=O)N[C@@H](CC(N)=O)C(=O)N[C@H](C(=O)N[C@@H](Cc1ccc(O)cc1)C(N)=O)[C@@H](C)O)C(C)C)[C@@H](C)O [Example 22, N-alpha-[(S)-4-Carboxy-4-(19-carboxynonadecanoylamino)butyryl]-His-His-[His1,Arg3,Glu14,His17]-pramlintide] ({C20 diacid-γGlu}-HHHCRTATCATQRLAEFLHHSSNNFGPILPPTNVGSNTY-NH2; disulfide 4-9 (inferred)) | 26 | 5
CC[C@H](C)[C@H](NC(=O)[C@@H]1CCCN1C(=O)CNC(=O)[C@H](Cc1ccccc1)NC(=O)[C@H](CC(N)=O)NC(=O)[C@H](CC(N)=O)NC(=O)[C@H](CO)NC(=O)[C@H](CO)NC(=O)[C@H](CCCNC(=N)N)NC(=O)[C@H](Cc1c[nH]cn1)NC(=O)[C@H](CC(C)C)NC(=O)[C@H](Cc1ccccc1)NC(=O)[C@H](CCC(=O)O)NC(=O)[C@H](C)NC(=O)[C@H](CC(C)C)NC(=O)[C@H](CCCNC(=N)N)NC(=O)[C@H](CCC(N)=O)NC(=O)[C@@H](NC(=O)[C@H](C)NC(=O)[C@@H]1CSSC[C@H](NC(=O)[C@H](CCC(=O)O)NC(=O)CC[C@H](NC(=O)CCCCCCCCCCCCCCCCCCC(=O)O)C(=O)O)C(=O)N[C@@H](CC(N)=O)C(=O)N[C@@H]([C@@H](C)O)C(=O)N[C@@H](C)C(=O)N[C@@H]([C@@H](C)O)C(=O)N1)[C@@H](C)O)C(=O)N[C@@H](CC(C)C)C(=O)N1CCC[C@H]1C(=O)N1CCC[C@H]1C(=O)N[C@H](C(=O)N[C@@H](CC(N)=O)C(=O)N[C@H](C(=O)NCC(=O)N[C@@H](CO)C(=O)N[C@@H](CC(N)=O)C(=O)N[C@H](C(=O)N1CCC[C@H]1C(N)=O)[C@@H](C)O)C(C)C)[C@@H](C)O [Example 10, N-alpha-[(S)-4-Carboxy-4-(19-carboxynonadecanoylamino)butyryl]-[Glu1,Glu14,His17,Arg18,Pro37]-pramlintide] ({C20 diacid-γGlu}-ECNTATCATQRLAEFLHRSSNNFGPILPPTNVGSNTP-NH2; disulfide 2-7 (inferred)) | 50 | 40
